According to patent US20180104224A1, “PHARMACEUTICAL COMPOSITIONS COMPRISING ANTIBACTERIAL AGENTS” (priority 2014, published 2018):
Blank lines part the entries; values can stand above or below the compound they belong to.

Experiments:
[1] = tested on: highly resistant strains of Pseudomonas aeruginosa; assay: MIC determination, all strains; format: cell-based; conditions: when used alone; highly resistant strains of P. aeruginosa
Procedure: (§1) The antibacterial activity of combinations according to the invention against resistant bacterial strains was investigated. Minimum Inhibitory Concentration (MIC) determination for the combinations according to invention was carried out in Muller Hinton Agar (MHA) (BD, USA) according to Clinical and Laboratory Standards Institute (CLSI) recommendations, (Clinical and Laboratory Standards Institute (CLSI), Performance Standards for Antimicrobial Susceptibility Testing, 20th Informational Supplement, M 100-S20, Volume 30, No. 1, 2010). In short, the test strains were adjusted to deliver about 10^4 CFU per spot with a multipoint inoculator (Applied Quality Services, UK). The plates were pored with MHA containing doubling concentration range of the test combinations according to invention. The plates were inoculated and were incubated at 35° C. for 18 hours.
The results on antibacterial activity of a carbapenem antibacterial agent selected from imipenem, meropenem, ertapenem and doripenem alone and in combination with Compound A or Compound B, against highly resistant strains of Pseudomonas aeruginosa are given in Table 1. […] For example, P. aeruginosa 2779 harbors resistance due to increased AmpC expression (300 times) and increased efflux; P. aeruginosa 1405 harbors resistance due to increased AmpC expression (600 times), reduced OprD expression and increased efflux; P. aeruginosa R 70 harbors resistance due to reduced OprD expression and increased efflux; and P. aeruginosa J 154 harbors resistance due to reduced OprD.

[2] = tested on: Pseudomonas aeruginosa R70; assay: Time kill study; format: cell-based; conditions: P. aeruginosa R70
Procedure: (§2) The synergistic killing effect of the combinations according to invention was studied by performing time kill studies. In a typical time kill study, the freshly grown cultures were diluted to the required cell density (initial starting inoculum) in Cation adjusted Muller Hinton broth medium (BD, USA). The antibacterial agents (either alone or in combination) at the required concentrations were added into the culture-containing medium. The samples were incubated under shaking condition (120 rpm) at 37° C. Enumeration of viable bacterial count was done every 2 hour by diluting in normal saline and plating on to the Tryptic Soya Agar plates (BD, USA). The plates were incubated for 24 hours to arrive at the viable bacterial count. The results are expressed in terms of Log10 CFU per ml. In general, the decrease of 1 Log10 CFU/ml, corresponds to 90% killing of bacteria.

[3] = tested on: Pseudomonas aeruginosa 1405; assay: Time kill study; format: cell-based; conditions: P. aeruginosa 1405
Procedure: as §2

[4] = tested on: P. aeruginosa R 70; assay: MIC determination in Muller Hinton Agar (CLSI);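 as to MIC (mcg/ml) of carbapenem in presence of [A] at 4 mcg/ml: MIC read as lowest concentration giving complete growth inhibition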;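 as to MIC (mcg/ml) of carbapenem in presence of [B] at 4 mcg/ml: MIC read as lowest concentration giving complete growth inhibition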; format: cell-based, Pseudomonas aeruginosa; conditions: for MIC: Pseudomonas aeruginosa, R70, 18 h, agent alone, P. aeruginosa R 70 [Reduced OprD + increased efflux]
Procedure: as §1

[5] = tested on: P. aeruginosa J 154; assay: MIC determination in Muller Hinton Agar (CLSI); format: cell-based, Pseudomonas aeruginosa; conditions: for MIC: Pseudomonas aeruginosa, J154, agent alone, P. aeruginosa J 154 [Reduced OprD]
Procedure: as §1

[6] = tested on: P. aeruginosa 2779; assay: MIC determination in Muller Hinton Agar (CLSI); format: cell-based, Pseudomonas aeruginosa;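 also: MIC read as lowest concentration giving complete growth inhibition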
Procedure: as §1

[7] = tested on: P. aeruginosa 1405; assay: MIC determination in Muller Hinton Agar (CLSI); format: cell-based, Pseudomonas aeruginosa;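 also: MIC read as lowest concentration giving complete growth inhibition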
Procedure: as §1

[8] = in presence of Compound A at 4 mcg/ml
[9] = in presence of Compound B at 4 mcg/ml

SMILES: O=C(NNC(=O)[C@@H]1CC[C@@H]2CN1C(=O)N2OS(=O)(=O)O)[C@@H]1CCCNC1 [Compound A, trans-sulfuric acid mono-[2-(N′-[(R)-piperidin-3-carbonyl]-hydrazinocarbonyl)-7-oxo-1,6-diaza-bicyclo[3.2.1]oct-6-yl]ester]
MIC values (in words) [1]: higher MIC values
effect on bacterial counts through out the duration of the study (in words) ([2]; when used alone): failed to reduce the bacterial counts
Bacterial count (Log10 CFU/ml) 0 hour ([2]; Table 4, single agent 4 mcg/ml): 6.62 Log10 CFU/ml
Bacterial count (Log10 CFU/ml) 2 hour ([2]; Table 4, single agent 4 mcg/ml): 7.07 Log10 CFU/ml
Bacterial count (Log10 CFU/ml) 4 hour ([2]; Table 4, single agent 4 mcg/ml): 8.35 Log10 CFU/ml
Bacterial count (Log10 CFU/ml) 6 hour ([2]; Table 4, single agent 4 mcg/ml): 8.48 Log10 CFU/ml
Bacterial count (Log10 CFU/ml) 0 hour ([2]; Table 4, single agent 8 mcg/ml): 6.62 Log10 CFU/ml
Bacterial count (Log10 CFU/ml) 2 hour ([2]; Table 4, single agent 8 mcg/ml): 6.9 Log10 CFU/ml
Bacterial count (Log10 CFU/ml) 4 hour ([2]; Table 4, single agent 8 mcg/ml): 7.11 Log10 CFU/ml
Bacterial count (Log10 CFU/ml) 6 hour ([2]; Table 4, single agent 8 mcg/ml): 7.16 Log10 CFU/ml
effect on bacterial counts through out the duration of the study (in words) ([3]; when used alone): failed to reduce the bacterial counts
Bacterial count (Log10 CFU/ml) 0 hour ([3]; Table 2, single agent 4 mcg/ml): 6.84 Log10 CFU/ml
Bacterial count (Log10 CFU/ml) 2 hour ([3]; Table 2, single agent 4 mcg/ml): 6.81 Log10 CFU/ml
Bacterial count (Log10 CFU/ml) 4 hour ([3]; Table 2, single agent 4 mcg/ml): 7.84 Log10 CFU/ml
Bacterial count (Log10 CFU/ml) 6 hour ([3]; Table 2, single agent 4 mcg/ml): 8.06 Log10 CFU/ml
Bacterial count (Log10 CFU/ml) 0 hour ([3]; Table 2, single agent 8 mcg/ml): 6.84 Log10 CFU/ml
Bacterial count (Log10 CFU/ml) 2 hour ([3]; Table 2, single agent 8 mcg/ml): 6.48 Log10 CFU/ml
Bacterial count (Log10 CFU/ml) 4 hour ([3]; Table 2, single agent 8 mcg/ml): 7.4 Log10 CFU/ml
Bacterial count (Log10 CFU/ml) 6 hour ([3]; Table 2, single agent 8 mcg/ml): 7.54 Log10 CFU/ml
MIC [4]: 8 µg/mL
MIC [5]: 16 µg/mL

MIC [4]: 8 µg/mL
MIC (mcg/ml) of carbapenem in presence of [A] at 4 mcg/ml ([4]; in presence of Compound A at 4 mcg/ml, P. aeruginosa R 70): 2 µg/mL
MIC (mcg/ml) of carbapenem in presence of [B] at 4 mcg/ml ([4]; in presence of Compound B at 4 mcg/ml, P. aeruginosa R 70): ≤0.12 µg/mL
MIC (mcg/ml) of carbapenem in presence of [A] at 4 mcg/ml [6, 8]: ≤0.25 µg/mL
MIC (mcg/ml) of carbapenem in presence of [B] at 4 mcg/ml [6, 9]: 0.12 µg/mL
MIC [5]: 16 µg/mL
MIC (mcg/ml) of carbapenem in presence of [A] at 4 mcg/ml ([5]; in presence of Compound A at 4 mcg/ml, P. aeruginosa J 154): 4 µg/mL
MIC (mcg/ml) of carbapenem in presence of [B] at 4 mcg/ml ([5]; in presence of Compound B at 4 mcg/ml, P. aeruginosa J 154): 0.5 µg/mL
MIC (mcg/ml) of carbapenem in presence of [A] at 4 mcg/ml [7, 8]: 1 µg/mL
MIC (mcg/ml) of carbapenem in presence of [B] at 4 mcg/ml [7, 9]: 1 µg/mL
SMILES: C[C@@H](O)[C@H]1C(=O)N2C(C(=O)O)=C(SCCN=CN)C[C@H]12 [Imipenem, imipenem]
Bacterial count (Log10 CFU/ml) 0 hour ([2]; Table 4, single agent 2 mcg/ml): 6.62 Log10 CFU/ml
Bacterial count (Log10 CFU/ml) 2 hour ([2]; Table 4, single agent 2 mcg/ml): 5.7 Log10 CFU/ml
Bacterial count (Log10 CFU/ml) 4 hour ([2]; Table 4, single agent 2 mcg/ml): 5.98 Log10 CFU/ml
Bacterial count (Log10 CFU/ml) 6 hour ([2]; Table 4, single agent 2 mcg/ml): 6.78 Log10 CFU/ml
Bacterial count (Log10 CFU/ml) 0 hour ([2]; Table 5, single agent 2 mcg/ml): 6.44 Log10 CFU/ml
Bacterial count (Log10 CFU/ml) 2 hour ([2]; Table 5, single agent 2 mcg/ml): 5.6 Log10 CFU/ml
Bacterial count (Log10 CFU/ml) 4 hours ([2]; Table 5, single agent 2 mcg/ml, 4 hours): 5.8 Log10 CFU/ml
Bacterial count (Log10 CFU/ml) 6 hour ([2]; Table 5, single agent 2 mcg/ml): 6.3 Log10 CFU/ml
Bacterial count (Log10 CFU/ml) 0 hour ([3]; Table 2, single agent 4 mcg/ml): 6.84 Log10 CFU/ml
Bacterial count (Log10 CFU/ml) 2 hour ([3]; Table 2, single agent 4 mcg/ml): 6.39 Log10 CFU/ml
Bacterial count (Log10 CFU/ml) 4 hour ([3]; Table 2, single agent 4 mcg/ml): 7.04 Log10 CFU/ml
Bacterial count (Log10 CFU/ml) 6 hour ([3]; Table 2, single agent 4 mcg/ml): 8.16 Log10 CFU/ml
Bacterial count (Log10 CFU/ml) 0 hour ([3]; Table 3, single agent 4 mcg/ml): 6.81 Log10 CFU/ml
Bacterial count (Log10 CFU/ml) 2 hour ([3]; Table 3, single agent 4 mcg/ml): 6.4 Log10 CFU/ml
Bacterial count (Log10 CFU/ml) 4 hour ([3]; Table 3, single agent 4 mcg/ml): 7.78 Log10 CFU/ml
Bacterial count (Log10 CFU/ml) 6 hour ([3]; Table 3, single agent 4 mcg/ml): 7.93 Log10 CFU/ml
